# Data: patent US7790160B2, “Method of treating CD30 positive lymphomas” (Medarex, Inc., priority 2004, dated 2010)
# Entries after “also recorded” stand apart in the source; their conditions may differ. Where a SMILES comes first, the peptide text is derived from it. The star is where a group is joined. Cbz = O=C(OCc1ccccc1)*
# Assays:
# [1] = tested on: L428 cells; assay: XTT viability assay; format: cell-based, human
# Source text: (§1) Each measurement was done in triplicate.
# [2] = tested on: L540 cells; assay: XTT viability assay; format: cell-based, human
# Source text: as §1
# [3] = tested on: subcutaneous L540Cy Hodgkin tumors; assay: Xenograft model of human HD; format: in vivo; conditions: SCID mice; for tumor growth compared to the control group receiving PBS: 100 μg 5F11 i.p., 10 ng bortezomib i.v. 6 hours later, 4 injections; for tumor growth in the weeks after treatment: several weeks after the 4 injections
# Protocol: FIG. 3: Effect of 5F11 and bortezomib on the tumor growth of subcutaneous L540Cy Hodgkin tumors in SCID mice. The mice were randomly divided into four groups when the L540 derived tumors reached a volume of about 100 mm3 to receive PBS, 5F11 (100 μg), bortezomib (10 ng) or the combination of 5F11 and bortezomib. The tumor volume of each mouse is given. The arrows indicate the days of treatment.
# The xenograft model of human HD has been described previously (17). Subcutaneous solid L540Cy tumors were established by injection of L540Cy cells (1×10^7) resuspended in 200 μL PBS into the right flank of pathogen-free severe combined immunodeficiency (SCID) mice (FOX CHASE SCID; Taconic M&B A/S, Ry, Denmark). Tumor development was measured every 3 days and the tumor volume was determined using the formula (length×width×height/2). Animals with established tumors of about 100 mm^3 were divided randomly into four groups, which received 100 μg 5F11 (in 200 μL PBS intraperitoneally) and 6 hours later 10 ng bortezomib i.v. by tail vein or each agent alone for a total of 4 injections. Control mice received PBS only. The experiment was stopped and the mice killed when the median […] in the control group exceeded 2500 mm^3 (day 50). The treatment and control groups consisted of 4 animals each and results were confirmed by repeating the experiments.
# [4] = tested on: NF-κB subunit p65 in L540 cells; assay: Detection of NF-κB subunit p65 with indirect immunofluorescence; format: cell-based, human; conditions: for expression level and nuclear localisation of NF-κB (p65 staining): L540 cells, crosslinked 5F11 or bortezomib
# Protocol: (§2) Cytospins were provided (1 min at 1000 U/min) to determine the effect of 5F11 and/or bortezomib on apoptosis and NFκB-activation in L428 and L540 cells on the single cell level. 2×10^5 cells were seeded in six-well microtiter plates in 3 ml plain media (control) or with 5F11+GaH (5 μg/25 μg per ml) or bortezomib (10 nM) or both. Incubation time was 30 min for 5F11, 1 h for crosslinking GaH and at least six hours for bortezomib, all at 37° C. The slides were dried overnight at room temperature and fixed using ice-cold acteone (30 sec incubation). The TUNEL assay was performed using the In Situ Cell Death Detection Kit, TMR red (Roche) according to the manufacturers instructions. Finally, cells were mounted with VECTASHIELD Mounting Medium containing DAPI (Vector Laboratories, Burlingame, Calif.) or stained with an rabbit-anti-p65 antibody (Santa Cruz, 10 nM) and a second FITC-labeled mouse-anti-rabbit antibody (10 nM). Cytospin preparations were analyzed by fluorescence microscopy.
# In order to exclude non-specific antibody binding, slides of untreated cells were stained either with rabbit-anti-p65-IgG, or FITC-conjugated mouse-anti-rabbit-IgG, or DAPI.
# [5] = tested on: NF-κB-responsive luciferase reporter gene in L428 cells; assay: Transient transfection and luciferase reporter gene assay; format: cell-based, human; conditions: L428 transfected with pNF-κB-luc
# Protocol: L428 cells were transfected with either the reporter constructs pCMV-luc (transfection control) or pNF-κB-luc (bar 2-4) or pNF-κB-luc together with the expression vector IkBM (bar 5-7). The transfection efficacy was about 10% and the total amount of DNA was kept constant. After an over night recovery period transfectants were treated with PBS (basal), 5F11 or bortezomib for 24 hours. The luciferase activity (RLU) of the cells were measured and is given to indicate the relative levels of NF-κB-dependent promoter activity.
# 5×10^6 L428 cells in 1 ml medium were transiently transfected by means of electroporation with 10 μg NF-κB-luc, IkBaM and CMV-GFP. Cells were seeded into six-well plates with additional 2 ml of plain medium. After 24 h incubation at 37° C., GFP transfected cells were examined for green flourescence as indicator of transfection efficacy, which varied from 5% to 10%. Cells were incubated either with 20 μg/ml 5F11+100 μg/ml GaH for 2 h, or with 10 ng/ml bortezomib or both or plain media for 12 h at 37° C. After harvesting the cells were washed twice in PBS (phosphate buffered saline).
# Lysis was performed using 1 ml ice-cold reporter lysis buffer (Promega), and lysates were frozen at −70° C. for 1 hour. Luciferase activity was measured using 30 μl lysate in a 96-well luminometry-plate and analyzed by luminometry. Untreated cells, transfected with the reporter gene were used to obtain baseline NF-κB-activity. All assays were done in triplicate to obtain means and standard deviations.
# [6] = tested on: c-flip in L428 cells; assay: SDS-PAGE and Western blotting; format: cell-based, human; conditions: CD30 stimulation with 5F11, co-incubation with bortezomib for 6, 8 and 16 hours
# Protocol: (§3) Whole cell protein extracts were prepared in 1× Laemmli solution (10 μg) were separated using sodium dodecyl sulfate polyacrylamide gel electrophoresis (SDS-PAGE) using 4-15% gels. Proteins were transferred to a nitrocellulose membrane (Hybond-C, Amersham Pharmacia Biotech Inc., Freiburg, Germany) and blocked with Roti-Block (Roth, Karlsruhe, Germany) for 1 h at room temperature. Immunoblots were incubated with the primary antibodies obtained from the Apoptosis Sampler Kits I and II (BD Bioscience, CA) in PBS with 10% fetal calf serum as recommended. The c-flip specific antibody was purchased from Sigma (F-6550). Bound antibodies were detected with horseradish peroxidase-conjugated secondary donkey-anti-mouse or rabbit-IgG mAb (Dianova, Hamburg, Germany) or horseradish peroxidaseconjugated goat-anti-mouse IgG (Dianova) diluted 1/10000. The proteins were visualized using the ECL Western blotting detection reagents (Amersham Pharmacia) according to manufacturers instructions.
# [7] = tested on: c-flip in L540 cells; assay: SDS-PAGE and Western blotting; format: cell-based, human; conditions: CD30 stimulation with 5F11, co-incubation with bortezomib for 6, 8 and 16 hours
# Protocol: as §3
# [8] = tested on: bcl-2, bax, TRADD and FADD; assay: SDS-PAGE and Western blotting of candidate proteins related to NF-κB activation; format: cell-based, human; conditions: following 5F11 crosslinking or bortezomib treatment
# Protocol: as §3
# [9] = tested on: Karpas 299 cells; assay: XTT viability assay; conditions: Karpas299, 5F11 + GaH pre-incubated 30 minutes, versus absence of 5F11, 48 hours
# [10] = tested on: REH cells; assay: XTT viability assay, CD30-negative control line; conditions: REH cells (do not express CD30), bortezomib alone
# Source text: (§5) An XTT-assay showing viability of the Hodgkin cell lines L540 (A), L428 (B) and the ALCL line Karpas299 (C) and the CD30 negative cell line REH (E) after exposure to increasing amounts of bortezomib in the presence (diamond) or absence (triangle) of 5F11.
# [11] = tested on: L540 cells; assay: Annexin V binding assay (annexinV-FITC staining, FACS); format: cell-based, human; conditions: each agent alone, subtoxic concentrations
# Protocol: FIG. 1: Induction of apoptosis in L540 cells after treatment with 5F11 and MG132 L540 cells were cultured for 16 h with PBS (control), crosslinked 5F11, MG132 or a combination of 5F11 and MG132. The apoptotic cells were labeled by annexinV-FITC staining and the percentage of viable and apoptotic cells is given as estimated in FACS analysis. The results of three independent experiments are shown.
# 2×10^5 L540 cells were incubated (in triplicate) either with 5F11/GaH, bortezomib, or both, or in plain medium as described above at 37° C. for 12 h. To detect apoptotic cells, the translocation of phosphatidylserine to the outer leaflet of the plasma membrane was determined by flow cytometry (FACS calibur Bengton & Dickinson Flow Cytometer) after staining with annexin V conjugated to fluorescein as recommended (Annexin V-FITC apoptosis detection kit I, BD Bioscience, USA). Triplicateswere used to calculate means and standard deviations.
# [12] = tested on: L540 cells; assay: TUNEL assay with 5F11 binding staining (GaH-FITC); format: cell-based, human
# Protocol: as §2
# The cellular reponse to 5F11 in the partial apoptosis-resistent HD-derived cell line L540 on the single cell level was analyzed. To visualize binding of 5F11 and apoptosis simultaneously, L540 cells were incubated with 5F11 and a FITC labeled crosslinking goat-anti human antibody before performing a TUNEL assay. […]
# [13] = tested on: NF-κB DNA binding in L428 cells; assay: Electrophoretic mobility shift assay (EMSA); format: cell-based, human; conditions: L428 nuclear extract, crosslinked antibody
# Protocol: (§4) Electrophoretic mobility shift assays (EMSA) were performed to visualize binding of NF-κB to DNA. Nuclear protein extract (5 μg; 20 mM HEPES, pH 7.9, 400 mM NaCl, 1 mM EDTA, 1 mM EGTA) from cells treated with different antibodies were incubated with ^32P-labeled oligonucleotides with the NF-κB binding sequence (Santa Cruz) for 30 minutes at room temperature. The DNA/protein complexes were separated using electrophoresis on 6% native polyacrylamide gels.
# [14] = tested on: NF-κB DNA binding in L540 cells; assay: Electrophoretic mobility shift assay (EMSA); format: cell-based, human; conditions: L540 nuclear extract, crosslinked antibody
# Protocol: as §4
# [15] = tested on: REH cells
# Source text: as §5
# [16] = tested on: L428 cells; conditions: 5F11 alone, even at higher concentrations (ref. 17); cited from earlier work
Molecule,tumor growth compared to the control group receiving PBS [3],tumor growth in the weeks after treatment [3],expression level and nuclear localisation of NF-κB (p65 staining) [4],expression of c-flip (Western blotting) [6],expression of c-flip (Western blotting) [7],bcl-2 and bax expression (Western blotting) [8],expression levels of TRADD and FADD (Western blotting) [8],enhancement of apoptosis compared to the control (annexin-V staining and FACS analysis) [11],other results
"CC(C)C[C@H](NC(=O)[C@H](Cc1ccccc1)NC(=O)c1cnccn1)B(O)O [bortezomib, reference compound]",significantly delayed tumor growth,tumor progression,exclusion of NF-κB from the cell nuclei,downregulation,downregulation,Only minor changes,remained unaltered,–,"IC50 of bortezomib in the presence of 5F11 ([1]; L428, 5F11 + GaH pre-incubated 30 minutes, versus absence of 5F11, 48 hours): decreased; IC50 of bortezomib in the presence of 5F11 ([2]; L540, 5F11 + GaH pre-incubated 30 minutes, versus absence of 5F11, 48 hours): decreased; cell viability (XTT) ([2]; L540, bortezomib 25 ng/ml, with or without pre-treatment with subtoxic 5F11 + GaH, 48 h): minimal reduction of viability; 5F11-induced NF-κB staining increase and nuclear accumulation in the presence of bortezomib ([4]; L540, bortezomib given 30 minutes after 5F11 stimulation, observed after 6 and 8 hours): inhibited; 5F11-induced activation of the NF-κB reporter gene in the presence of bortezomib [5]: supressed; basal activity of the NF-κB reporter [5]: reduced; IC50 of bortezomib in the presence of 5F11 [9]: decreased; cytotoxicity (XTT) [10]: killed by bortezomib in a dose dependent manner"
"CC(C)C[C@@H](C=O)NC(=O)[C@H](CC(C)C)NC(=O)[C@H](CC(C)C)NC(=O)OCc1ccccc1 [MG132, carbobenzoxyl-leucinyl-leucynil-leucynal, reference compound] (Cbz-Leu-Leu-Leu-aldehyde)",–,–,–,–,–,–,–,did not enhance apoptosis,–
"5F11: fully human monoclonal antibody directed against CD30; VH SEQ ID NO: 10, VL SEQ ID NO: 12 (antibody, listed as Homo sapiens, V domains shown) VH: QVQLQQWGAGLLKPSETLSLTCAVYGGSFSAYYWSWIRQPPGKGLEWIGDINHGGGTNYNPSLKSRVTISVDTSKNQFSLKLNSVTAADTAVYYCASLTAYWGQGSLVTVSS VL: DIQMTQSPTSLSASVGDRVTITCRASQGISSWLTWYQQKPEKAPKSLIYAASSLQSGVPSRFSGSGSGTDFTLTISSLQPEDFATYYCQQYDSYPITFGQGTRLEIK",significantly delayed tumor growth,tumor progression,increased; also recorded: nuclear accumulation,induced strongly,induced strongly,Only minor changes,remained unaltered,did not enhance apoptosis,"binding of 5F11 (staining with GaH-FITC) ([12]; L540 cells incubated with 5F11 and FITC labeled crosslinking goat-anti human antibody): All L540 cells were stained; apoptosis on the single cell level (TUNEL assay) ([12]; L540 cells, 5F11 crosslinked with GaH, subtoxic concentrations in the combination): only a subset of the cells were rendered apoptotic; enhancement of the cytotoxic activity of bortezomib, reversed sequence ([1]; L428 first incubated with bortezomib for 30 minutes, then with the antibody): does not increase; also recorded: did not enhance; activation of the NF-κB reporter gene (luciferase activity) ([5]; stimulation with 5F11): about two-fold; DNA-binding activity of NF-κB (EMSA) [13]: enhanced DNA binding; DNA-binding activity of NF-κB (EMSA) [14]: enhanced DNA binding; effect of pre-incubation with 5F11 on the cytotoxic potential of bortezomib [15]: no effect; sensitivity of L428 cells to 5F11 [16]: resistant"
